Experimental data published in patent US20140090094A1, “MODULATORS OF SLC22A7” (BAYER INTELLECTUAL PROPERTY GmbH, priority 2011, published 2014).

T1: OAT2r (Rattus norvegicus, UniProt Q5RLM2)
T1 construct: expressed in transfected cells
T1 sequence (Q5RLM2 1-535): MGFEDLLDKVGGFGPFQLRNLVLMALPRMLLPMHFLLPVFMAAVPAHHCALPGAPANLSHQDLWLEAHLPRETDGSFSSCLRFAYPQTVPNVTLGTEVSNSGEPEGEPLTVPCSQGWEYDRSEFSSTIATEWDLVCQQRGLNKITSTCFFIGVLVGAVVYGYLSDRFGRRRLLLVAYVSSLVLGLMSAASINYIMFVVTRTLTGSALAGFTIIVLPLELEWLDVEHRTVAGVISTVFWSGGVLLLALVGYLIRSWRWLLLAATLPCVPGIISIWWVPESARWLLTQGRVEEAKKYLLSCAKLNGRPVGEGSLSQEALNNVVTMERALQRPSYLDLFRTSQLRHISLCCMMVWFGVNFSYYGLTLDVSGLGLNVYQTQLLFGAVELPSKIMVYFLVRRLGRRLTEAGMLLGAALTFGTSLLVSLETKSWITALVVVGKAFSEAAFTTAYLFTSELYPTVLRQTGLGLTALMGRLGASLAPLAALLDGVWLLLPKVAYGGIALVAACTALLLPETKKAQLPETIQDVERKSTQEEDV

T2: OAT2h (Homo sapiens, UniProt Q9Y694)
T2 construct: expressed in transfected cells; host or cells: 293 cells (HEK-293), pEBTetD/OAT2h, doxycycline-inducible
T2 sequence (Q9Y694 1-546 isoform Q9Y694-2): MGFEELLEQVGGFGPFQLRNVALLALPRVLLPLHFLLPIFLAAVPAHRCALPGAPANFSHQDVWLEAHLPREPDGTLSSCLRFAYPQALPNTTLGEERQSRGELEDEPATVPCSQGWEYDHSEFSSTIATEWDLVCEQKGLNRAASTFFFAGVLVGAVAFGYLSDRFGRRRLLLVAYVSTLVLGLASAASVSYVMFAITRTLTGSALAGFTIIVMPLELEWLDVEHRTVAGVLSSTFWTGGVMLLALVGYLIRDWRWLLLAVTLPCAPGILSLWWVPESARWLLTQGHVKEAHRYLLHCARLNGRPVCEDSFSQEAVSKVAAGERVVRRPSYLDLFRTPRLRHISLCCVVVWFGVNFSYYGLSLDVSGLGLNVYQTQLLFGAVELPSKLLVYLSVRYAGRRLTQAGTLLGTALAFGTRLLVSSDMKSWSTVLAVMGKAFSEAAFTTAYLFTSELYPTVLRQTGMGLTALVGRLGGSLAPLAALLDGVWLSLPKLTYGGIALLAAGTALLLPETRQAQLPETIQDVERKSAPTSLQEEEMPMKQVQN


How the values were obtained:
OAT2r [1] = target: T1, OAT2r; assay: 1 min uptake into 293 cells expressing OAT2 from rat; type: cell-based; conditions: 1 min uptake, 0.1 μmol/l radiotracer or 10 μmol/l unlabeled compound;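 note: uptake at 37 °C, read by liquid scintillation counting or LC-ESI-MS/MS, carrier-mediated part as induced-minus-uninduced expression difference corrected for baseline content, protein by BCA assay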
Procedure: (§1) Cells were used for uptake experiments at a confluence of at least 70%. Uptake was measured at 37° C. […] After preincubation for at least 20 minutes in 4 ml of uptake buffer, the buffer was replaced with 2 ml of substrate in uptake buffer. The total substrate concentration if not indicated otherwise was 0.1 μmol/l for radiotracer assays and 10 μmol/l for unlabeled compounds. Incubation was stopped after 1 min by rinsing the cells four times each with 4 ml ice-cold uptake buffer. Radioactivity was determined, after cell lysis with 0.1% v/v Triton X-100 in 5 mmol/l TRIS-HCl pH 7.4, by liquid scintillation counting. For LCelectrospray ionization-MS/MS analysis, cells were lysed with methanol and stored at −20° C.
(§2) After centrifugation (1 min, 16000×g, 20° C.) of thawed lysates, 100 μl of the supernatant was mixed with either 10 μl unlabeled MPP+ iodide (0.5 ng/μl) or biphenyl-4-carboxylic acid (Sigma-Aldrich) as internal standard. […] Atmospheric pressure ionization with positive or negative electrospray was used. For quantification (scan time 150 ms), the optimal collision energy for argon-induced fragmentation in the second quadrupole was determined for each analyte. […] Linear calibration curves were constructed from at least six standards which were prepared using control cell lysates as solvent. Sample analyte content was calculated from the analyte response ratio and the slope of the calibration curve, obtained by linear regression. With LC-MS quantitation, solute content of cell lysates was determined for 4 conditions (paired dishes, incubation time 1 min): a) transporter expression on, uptake buffer; b) expression off, uptake buffer; c) expression on, substrate in uptake buffer; d) expression off, substrate in uptake buffer. Acute uptake mediated by heterologously expressed carrier was then calculated as (c−a)−(d−b). This approach takes into account endogenous solute content and non-specific uptake. Protein was measured by the BCA assay (Pierce) with bovine serum albumin as standard. The protein content of MS samples was estimated from 3 matched cell dishes.

OAT2r [2] = target: T1, OAT2r; assay: 24 h accumulation in lysates of OAT2r-expressing versus control cells (LC-MS/MS); type: cell-based; conditions: for increase in OAT2r cell lysates versus control cells (factor f): 24 h incubation, compound at 100 μmol/l
Procedure: A substrate search by LC-MS difference shading was performed with 293 cells stably transfected to express OAT2 from rat. […] To verify that trigonelline is directly transported by OAT2 and not just increased indirectly, initial rates of uptake (1 min, 37° C.) of trigonelline (10 μmol/l) were determined by LC-MS/MS.
With trigonelline as substrate lead, compounds wholly or partly related in structure were analyzed for transport by OAT2 from rat.
After centrifugation (1 min, 16000×g, 20° C.) of thawed lysates, 100 μl of the supernatant was mixed with either 10 μl unlabeled MPP+ iodide (0.5 ng/μl) or biphenyl-4-carboxylic acid (Sigma-Aldrich) as internal standard. Of this mixture, […] were analyzed by LCMS/MS on a triple quadrupole mass spectrometer (4000 Q TRAP, Applied Biosystems, Darmstadt, Germany). […] Atmospheric pressure ionization with positive or negative electrospray was used. For quantification (scan time 150 ms), the optimal collision energy for argon-induced fragmentation in the second quadrupole was determined for each analyte. […] Linear calibration curves were constructed from at least six standards which were prepared using control cell lysates as solvent. Sample analyte content was calculated from the analyte response ratio and the slope of the calibration curve, obtained by linear regression. With LC-MS quantitation, solute content of cell lysates was determined for 4 conditions ([…]): a) transporter expression on, uptake buffer; b) expression off, uptake buffer; c) expression on, substrate in uptake buffer; d) expression off, substrate in uptake buffer. Acute uptake mediated by heterologously expressed carrier was then calculated as (c−a)−(d−b). This approach takes into account endogenous solute content and non-specific uptake. Protein was measured by the BCA assay (Pierce) with bovine serum albumin as standard. The protein content of MS samples was estimated from 3 matched cell dishes.

OAT2h = target: T2, OAT2h; assay: 1 min uptake into 293 cells expressing OAT2 from human; type: cell-based; conditions: radiotracer
Procedure: as §1, §2

OAT2r [3] = target: T1, OAT2r; assay: trans-stimulation of efflux of 3H-orotic acid via OAT2r; type: cell-based; conditions: 1 mmol/l compound in uptake buffer, 1 min, preloaded cells
[4] = substrate: O=C(O)c1cc(=O)[nH]c(=O)[nH]1; assay: cells, lysate or membranes; conditions: other: saturation of OAT2r-mediated uptake, 1 min

Molecule	transport by OAT2r (in words) (OAT2r [1])	increase in OAT2r cell lysates versus control cells (factor f) (OAT2r [2])	other results
C[n+]1cccc(C(N)=O)c1 [1-methylnicotinamide]	no transport		
Nc1ccccc1C(=O)O [2-aminobenzoic acid]	no transport	1.1	
CCN(CC)CCC(=O)O [3-(diethylamino)propionic acid]		1.1	
Nc1cccc(C(=O)O)c1 [3-aminobenzoic acid]	no transport	1.4	
NC(=O)CC[C@H](N)C(=O)O [3H-glutamine, glutamine]			uptake by OAT2h (in words) (OAT2h): no uptake
Nc1ccc(C(=O)O)cc1 [4-aminobenzoic acid]	no transport	1.1	
NCC(=O)CCC(=O)O [5-aminolevulinic acid]	no transport		
O=C(O)c1[nH]c(=O)[nH]c(=O)c1F [5-fluoroorotic acid]	transported efficiently		
O=C1CC[C@@H](C(=O)O)N1 [5-oxoproline]	no transport		
C[N+](C)(C)C[C@H](O)CC(=O)[O-] [L-carnitine]		1.0	
O=C1C[C@@H](C(=O)O)NC(=O)N1 [L-dihydroorotic acid]	no transport		
O=C(O)[C@@H]1CCCN1 [L-proline]	no transport		
O=C(O)c1cccnc1C(=O)O [Quinolinic acid]		2.7	difference in lysate content between OAT2r and control cells (in words) (OAT2r [2]; up to 1 h incubation time): virtually no difference
O=C1CC(=O)NC(=O)N1 [barbituric acid]	no transport		
CN(CC(=O)O)C(=N)N [creatine]	no transport		
CC1=NCC[C@@H](C(=O)O)N1 [ectoine]		1.2	

Molecule	transport by OAT2r (in words) (OAT2r [1])	increase in OAT2r cell lysates versus control cells (factor f) (OAT2r [2])	other results
NCC1(CC(=O)O)CCCCC1 [gabapentin]		1.2	
C[N+](C)(C)CC(=O)[O-] [glycine betaine]		1.0	
N=C(N)NCC(=O)O [guanidinoacetic acid]	no transport		
O=C(O)CC1NC(=O)NC1=O (stereo not shown) [hydantoin-5-acetic acid]	no transport		
O=C(O)c1c[nH]c(=O)[nH]c1=O [isoorotic acid]	transported efficiently		
O=C(O)c1cc(=O)c2ccccc2[nH]1 [kynurenic acid]	no transport		
CC(O)C(=O)O (stereo not shown) [lactate]			trans-stimulation of efflux of 3H-orotic acid (in words) (OAT2r [3]): rejects
O=C(O)CC(O)C(=O)O (stereo not shown) [malate]			trans-stimulation of efflux of 3H-orotic acid (in words) (OAT2r [3]): rejects
NC(=O)c1cccnc1 [nicotinamide]	no transport	no significant increase	
O=C(O)c1ccc[n+]([C@@H]2O[C@H](COP(=O)(O)O)[C@@H](O)[C@H]2O)c1 [nicotinic acid mononucleotide]	no transport		
O=C([O-])c1ccc[n+]([C@@H]2O[C@H](CO)[C@@H](O)[C@H]2O)c1 [nicotinic acid riboside]	transported slightly more efficiently than trigonelline		
O=C(O)c1cccnc1 [nicotinic acid]	no transport	no significant increase	
Cc1cc2nc3c(=O)[nH]c(=O)nc-3n(C[C@H](O)[C@H](O)[C@H](O)CO)c2cc1C [riboflavin]	no transport	1.2	
C[N+]1(C)CCC[C@H]1C(=O)[O-] [stachydrine]	no transport	1.2	
Cc1ncc(C[n+]2csc(CCO)c2C)c(N)n1 [thiamine]	no transport		
OAT2r (Rattus norvegicus) (protein) MGFEDLLDKVGGFGPFQLRNLVLMALPRMLLPMHFLLPVFMAAVPAHHCALPGAPANLSHQDLWLEAHLPRETDGSFSSCLRFAYPQTVPNVTLGTEVSNSGEPEGEPLTVPCSQGWEYDRSEFSSTIATEWDLVCQQRGLNKITSTCFFIGVLVGAVVYGYLSDRFGRRRLLLVAYVSSLVLGLMSAASINYIMFVVTRTLTGSALAGFTIIVLPLELEWLDVEHRTVAGVISTVFWSGGVLLLALVGYLIRSWRWLLLAATLPCVPGIISIWWVPESARWLLTQGRVEEAKKYLLSCAKLNGRPVGEGSLSQEALNNVVTMERALQRPSYLDLFRTSQLRHISLCCMMVWFGVNFSYYGLTLDVSGLGLNVYQTQLLFGAVELPSKIMVYFLVRRLGRRLTEAGMLLGAALTFGTSLLVSLETKSWITALVVVGKAFSEAAFTTAYLFTSELYPTVLRQTGLGLTALMGRLGASLAPLAALLDGVWLLLPKVAYGGIALVAACTALLLPETKKAQLPETIQDVERKSTQEEDV			Km [4]: 200 (95% confidence interval: 160-240) μmol/l
